The test concerns the target SMYD3 (Homo sapiens (Human), UniProt Q9H7B4). The test is described as follows: SMYD3 biochemical assay (SMYD3 enzyme assay on MEKK2 protein substrate, 3H-SAM scintillation proximity assay). To be noted: read-out: SMYD3 Biochem IC50 (μM)*. An excerpt:
S-adenosylmethionine (SAM), S-adenosylhomocysteine (SAH), Tris, Tween20, dimethylsulfoxide (DMSO), bovine skin gelatin (BSG), and Tris(2-carboxyethyl)phosphine hydrochloride solution (TCEP) were purchased from Sigma-Aldrich at the highest level of purity possible. ^3H-SAM was purchase from American Radiolabeled Chemicals with a specific activity of 80 Ci/mmol. 384-well opaque white OptiPlates and SPA beads (Perkin Elmer, catalog # RPNQ0013) were purchased from PerkinElmer.
N-terminally GST-tagged MEKK2 (MAP3K2) protein corresponding to reference sequence AAF63496.3 was purchased from Life Technologies (catalog # PV4010). This protein was expressed in High Five insect cells and purified to >85% purity. Protein identity was confirmed by MS/MS analysis after proteolytic digestion. The protein sequence used was:
Full-length human SMYD3 isoform 1 (BAB86333) was inserted into a modified pET21b plasmid containing a His6 tag and TEV and SUMO cleavage sites.
E. coli (BL21 codonplus RIL strain, Stratagene) were transformed with plasmid pEPZ553 by mixing competent cells and plasmid DNA and incubating on ice for 30 minutes followed by heat shock at 42° C. for 1 minute and cooling on ice for 2 minutes. Transformed cells were grown and selected on LB agar with 100 μg/mL ampicillin and 17 μg/mL chloramphenicol at 37° C. overnight. A single clone was used to inoculate 200 mL of LB medium with 100 μg/mL ampicillin and 17 μg/mL chloramphenicol and incubated at 37° C. on an orbital shaker at 180 rpm. Once in log growth, the culture was diluted 1:100 into 2 L of LB medium and grown until OD600 was about 0.3 after which the culture was incubated at 15° C. and 160 rpm. Once OD600 reached about 0.4, IPTG was added to a final concentration of 0.1 mM and the cells were grown overnight at 15° C. and 160 rpm. Cells were harvested by centrifugation at 8000 rpm, for 4 minutes at 4° C. and stored at −80° C. for purification.
The column was washed with Buffer B (Buffer A plus 20 mM imidazole) and His-tagged SMYD3 was eluted with Buffer C (Buffer A plus 300 mM imidazole). The His tag, TEV and SUMO cleavage sites were removed generating native SMYD3 by addition of ULP1 protein at a ratio of 1:200 (ULP1:SMYD3). Imidazole was removed by dialysis overnight in Buffer A. The dialyzed solution was applied to a second Nickel column and the native SMYD3 protein was collected from the column flow-through. The flow-through was dialyzed in Buffer D (25 mM Tris, 5% glycerol, 5 mM β-mercaptoethanol, 50 mM NaCl, pH7.8) and ULP1 was removed using a Q sepharose fast flow column.
General Procedure for SMYD3 Enzyme Assays on MEKK2 Protein Substrate
The assays were all performed in a buffer consisting of 25 mM Tris-Cl pH 8.0, 1 mM TCEP, 0.005% BSG, and 0.005% Tween 20, prepared on the day of use. […] DMSO (1 ul) was added to Columns 11, 12, 23, 24, rows A-H for the maximum signal control and 1 ul of SAH, a known product and inhibitor of SMYD3, was added to columns 11, 12, 23, 24, rows I-P for the minimum signal control. A cocktail (40 ul) containing the SMYD3 enzyme was added by Multidrop Combi (Thermo-Fisher). The compounds were allowed to incubate with SMYD3 for 30 min at room temperature, then a cocktail (10 ul) containing SAM and MEKK2 was added to initiate the reaction (final volume=51 ul). […] The assays were stopped by the addition of non-radiolabeled SAM (10 ul) to a final concentration of 100 uM, which dilutes the ^3H-SAM to a level where its incorporation into MEKK2 is no longer detectable. Radiolabeled MEKK2 was detected using a scintillation proximity assay (SPA). 10 uL of a 10 mg/mL solution of SPA beads in 0.5 M citric acid was added and the plates centrifuged at 600 rpm for 1 min to precipitate the radiolabeled MEKK2 onto the SPA beads.

Chain of SMYD3 (Q9H7B4 whole entry): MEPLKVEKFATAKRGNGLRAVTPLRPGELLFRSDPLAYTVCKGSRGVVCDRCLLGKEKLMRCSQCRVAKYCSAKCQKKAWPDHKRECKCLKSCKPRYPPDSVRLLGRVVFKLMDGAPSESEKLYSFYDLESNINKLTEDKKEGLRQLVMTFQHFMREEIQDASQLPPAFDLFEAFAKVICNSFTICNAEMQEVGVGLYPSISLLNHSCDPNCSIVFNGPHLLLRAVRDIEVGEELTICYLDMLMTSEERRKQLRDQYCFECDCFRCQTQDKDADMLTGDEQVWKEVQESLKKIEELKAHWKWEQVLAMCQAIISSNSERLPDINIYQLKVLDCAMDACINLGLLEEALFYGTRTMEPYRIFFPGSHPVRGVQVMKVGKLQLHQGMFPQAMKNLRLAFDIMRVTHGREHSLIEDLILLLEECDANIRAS

Regarding `CCc1cc(C(=O)N[C@H]2CC[C@H](N)CC2)ns1` [compound 17, N-((1r,4r)-4-aminocyclohexyl)-5-ethylisothiazole-3-carboxamide], the IC50 was found to be 13.5 µM. Next, `CCc1ccc(C(=O)N[C@H]2CC[C@H](N)CC2)cc1` [compound 18, N-((1r,4r)-4-aminocyclohexyl)-4-ethylbenzamide]: 125 µM; `N[C@H]1CC[C@H](NC(=O)c2ccc3c(c2)OCC(=O)N3)CC1` [compound 19, N-((1r,4r)-4-aminocyclohexyl)-3-oxo-3,4-dihydro-2H-benzo[b][1,4]oxazine-7-carboxamide]: 102 µM; `N[C@H]1CC[C@H](NC(=O)c2ccc3c(c2)NC(=O)CO3)CC1` [compound 20, N-((1r,4r)-4-aminocyclohexyl)-3-oxo-3,4-dihydro-2H-benzo[b][1,4]oxazine-6-carboxamide]: 16 µM.

As for `CCc1cccc(C(=O)N[C@H]2CC[C@H](N)CC2)c1` [compound 21, N-((1r,4r)-4-aminocyclohexyl)-3-ethylbenzamide], the IC50 worked out at 57.5 µM. As to `CCc1cncc(C(=O)N[C@H]2CC[C@H](N)CC2)c1` [compound 22, N-((1r,4r)-4-aminocyclohexyl)-5-ethylnicotinamide], the IC50 was found to be 31.3 µM.

Consider `CC(=O)c1cccc(C(=O)N[C@H]2CC[C@H](N)CC2)c1` [compound 23, 3-acetyl-N-((1r,4r)-4-aminocyclohexyl)benzamide], for which the IC50 was determined as 91.5 µM. Next, `CC(=O)Nc1cccc(C(=O)N[C@H]2CC[C@H](N)CC2)c1` [compound 24, 3-acetamido-N-((1r,4r)-4-aminocyclohexyl)benzamide]: 80.3 µM; `CCC(=O)Nc1cccc(C(=O)N[C@H]2CC[C@H](N)CC2)c1` [compound 25, N-((1r,4r)-4-aminocyclohexyl)-3-propionamidobenzamide]: 84.3 µM. In the case of `N[C@H]1CC[C@H](NC(=O)c2cccc(CO)c2)CC1` [compound 26, N-((1r,4r)-4-aminocyclohexyl)-3-(hydroxymethyl)benzamide], the IC50 was 86 µM. Consider `CCn1nc(C)cc1C(=O)N[C@H]1CC[C@H](N)CC1` [compound 27, N-((1r,4r)-4-aminocyclohexyl)-1-ethyl-3-methyl-1H-pyrazole-5-carboxamide], for which the IC50 was determined as 102 µM. For `Cc1cc(C(=O)N[C@H]2CC[C@H](N)CC2)n(-c2ccccc2)n1` [compound 28, N-((1r,4r)-4-aminocyclohexyl)-3-methyl-1-phenyl-1H-pyrazole-5-carboxamide] the value was 111 µM. Next, `CCn1nc(C)cc1C(=O)NC(c1ccccc1)C1CCNCC1` (stereo not drawn) [compound 30, 1-ethyl-3-methyl-N-(phenyl(piperidin-4-yl)methyl)-1H-pyrazole-5-carboxamide]: 69.2 µM; `Cc1cc(C(=O)NC(c2ccccc2)C2CCNCC2)n(-c2ccccc2)n1` (stereo not drawn) [compound 31, 3-methyl-1-phenyl-N-(phenyl(piperidin-4-yl)methyl)-1H-pyrazole-5-carboxamide]: 56.7 µM; `Cc1cc(C(=O)NC(c2ccccc2)C2CCNCC2)n(Cc2ccccc2)n1` (stereo not drawn) [compound 32, 1-benzyl-3-methyl-N-(phenyl(piperidin-4-yl)methyl)-1H-pyrazole-5-carboxamide]: 91.3 µM. In the case of `CCc1cc(C(=O)N[C@H]2CC[C@H](N)CC2)n(C)n1` [compound 37, N-((1r,4r)-4-aminocyclohexyl)-3-ethyl-1-methyl-1H-pyrazole-5-carboxamide], the IC50 is 59.9 µM.

In the case of `CCc1ccnc(C(=O)N[C@H]2CC[C@H](N)CC2)c1` [compound 38, N-((1r,4r)-4-aminocyclohexyl)-4-ethylpicolinamide], the IC50 is 20.5 µM. With `O=C1CNc2cc(C(=O)NC3CCNCC3)ccc2N1` [compound 39, 2-oxo-N-(piperidin-4-yl)-1,2,3,4-tetrahydroquinoxaline-6-carboxamide], the IC50 was determined as 23.9 µM. Next, `N[C@H]1CC[C@H](NC(=O)c2ccc3c(c2)CC(=O)N3)CC1` [compound 40, N-((1r,4r)-4-aminocyclohexyl)-2-oxoindoline-5-carboxamide]: 2.84 µM. Consider `N[C@H]1CC[C@H](NC(=O)c2ccc3c(c2)CC(=O)N3)CC1` [compound 42, N-((1r,4r)-4-aminocyclohexyl)-2-oxoindoline-5-carboxamide], for which the IC50 was 3.31 µM.

Regarding `N[C@H]1CC[C@H](NC(=O)c2ccc3nc(O)cnc3c2)CC1` [compound 43, N-((1r,4r)-4-aminocyclohexyl)-2-hydroxyquinoxaline-6-carboxamide], the IC50 stood at 60.4 µM. For the compound `O=C1Cc2cc(C(=O)NC(c3ccccc3)C3CCNCC3)ccc2N1` (stereo not drawn) [compound 44, 2-oxo-N-(phenyl(piperidin-4-yl)methyl)indoline-5-carboxamide], the IC50 was found to be 14.1 µM. Take `Nc1cc(C(=O)NC(c2ccccc2)C2CCNCC2)n[nH]1` (stereo not drawn) [compound 45, 5-amino-N-(phenyl(piperidin-4-yl)methyl)-1H-pyrazole-3-carboxamide]: the IC50 amounted to 137 µM.

For the compound `O=C(NC1CCNCC1)c1ccc2ncc(=O)[nH]c2c1` [compound 46, 3-oxo-N-(piperidin-4-yl)-3,4-dihydroquinoxaline-6-carboxamide], the IC50 was 63.7 µM. As to `N[C@H]1CC[C@H](NC(=O)c2cnc3c(c2)CC(=O)N3)CC1` [compound 47, N-((1r,4r)-4-aminocyclohexyl)-2-oxo-2,3-dihydro-1H-pyrrolo[2,3-b]pyridine-5-carboxamide], the IC50 is 11.9 µM. As for `Cn1nc(N)cc1C(=O)N[C@H]1CC[C@H](N)CC1` [compound 48, 3-amino-N-((1r,4r)-4-aminocyclohexyl)-1-methyl-1H-pyrazole-5-carboxamide], the IC50 was 117 µM.

Regarding `N[C@@H](Cc1ccc(O)cc1)C(=O)N1CCC(NC(=O)c2ccc3c(c2)CC(=O)N3)CC1` [compound 49, N-(1-(L-tyrosyl)piperidin-4-yl)-2-oxoindoline-5-carboxamide], the IC50 was 0.86 µM.

As to `N[C@@H](Cc1c[nH]c2ccccc12)C(=O)N1CCC(NC(=O)c2ccc3c(c2)CC(=O)N3)CC1` [compound 51, N-(1-(L-tryptophyl)piperidin-4-yl)-2-oxoindoline-5-carboxamide], the IC50 was 0.69 µM. As for `CCC(=O)c1c[nH]c(C(=O)Nc2ccc(CN)cc2)c1` [compound 52, N-(4-(aminomethyl)phenyl)-4-propionyl-1H-pyrrole-2-carboxamide], the IC50 came out at 108 µM. With `CCCCC1CC1C(=O)N[C@H]1CC[C@H](N)CC1` (stereo partly drawn) [compound 53, N-((1r,4r)-4-aminocyclohexyl)-2-butylcyclopropane-1-carboxamide], the IC50 worked out at 122 µM.

With `CCc1ccc(C(=O)N[C@H]2CC[C@H](N)CC2)s1` [compound 54, N-((1r,4r)-4-aminocyclohexyl)-5-ethylthiophene-2-carboxamide], the IC50 was 49.9 µM. As for `CCc1ccc(C(=O)NC(c2ccccc2)C2CCNCC2)s1` (stereo not drawn) [compound 55, 5-ethyl-N-(phenyl(piperidin-4-yl)methyl)thiophene-2-carboxamide], the IC50 worked out at 116 µM.

As to `CCc1ccc(C(=O)Nc2ccc(CN)cc2)s1` [compound 56, N-(4-(aminomethyl)phenyl)-5-ethylthiophene-2-carboxamide], the IC50 came out at 138 µM.

Values taken from patent US10266526B2, “Substituted 1,2,3-triazoles as SMYD inhibitors for treating cancer” (EPIZYME, INC., priority 2014, dated 2019).
